# Assay results as given in patent publication US9920295B2, “Bioreactor for isolation of rare cells and methods of use” (The Trustees of the University of Pennsylvania, priority 2012, dated 2018).
# Read-outs that look alike come from different tables or passages of the source.
# Experiments:
# Format in all cases: cell-based, human
# CD41+ and CD41− cells = experiment: Label-free MS quantitation of cytoskeletal proteome
# Description: BM CD34^+-derived cells at day 7 were stained with CD41-FITC at room temperature for 1 h, followed by with Annexin-V-PE (BD Biosciences) in the Annexin-V staining medium for 15 min. Cells were then resuspended in 2% FBS/PBS with 7-AAD. Viable HSC-containing cell populations and differentiated MK lineages at day 7 in culture were separated on the basis of CD41 surface expression by cell sorting performed on a FACS Vantage machine (Becton Dickinson). Dead cells stained with 7-AAD and Annexin-V were excluded from sorting. Sorted cells were directly processed for mass spectrometry (MS) analyses (FIG. 5).
# Samples were prepared for mass spectrometry by gel-free (Wiśniewski et al., 2009, Nat Methods, 6:359-362) or in-gel digestion methods. […] Label-free relative peptide quantitation was performed on proportional peak fingerprints (ProPF) of proteins with in-house software coded in Mathematica (Wolfram Research). […] Proteomes from primary MKs were analyzed using this unique method and a selected group of proteins were validated by antibodies (FIG. 13D). COS cells transfected with GFP-NMM-IIA and siRNA […] knockdown were also analyzed by the method, and show increased NMM-IIA expression by 17-fold and partial knockdown (˜40%) of NMM-IIA compared with cells transfected with GFP and scrambled siRNA. There was minimal perturbation to other proteins detected.
# MKs = experiment: In vitro platelet generation from MKs; conditions: 20 μM for 3 d, then 3 d of no drug
# Description: For platelet-activation assays, platelet-sided fraction isolated from either MK culture or NSG blood was resuspended in Tyrode's buffer supplemented with Mg^2+ and Ca^2+, and incubated with indicated agonists for 15 min at 37° C., followed by staining with FITC-conjugated anti-human P-selectin or PAC-1 antibody (BD Bioscience), APC-conjugated anti-human CD41, and in the case of xenograft samples, PE-conjugated anti-mouse CD41 for 15 min at room temperature, followed by fixation with 1.5% paraformaldehyde. Antibody-stained samples were then analyzed by flow cytometry. Platelet number was evaluated by mixing each sample with a defined number (˜10,000 beads per sample) of APC-conjugated beads (BD Bioscience). The number of platelets per sample was evaluated by: number of CD41^+ events/number of APC-bead events multiplied by total known number of APC-bead added per sample.
# Transplantation of uncultured human cord-blood CD34^+ cells in immuno-deficient nonobese diabetic (NOD)/SCID mice has been shown previously to yield sustained generation of human platelets (Salles et al., 2009, Blood, 114:5044-5051), but the intravenous delivery route used to date requires a large number of cells for homing and engraftment. Intrabone marrow transplantation was instead used here to more rapidly expose injected cells to the marrow microenvironment per FIG. 1A. […]
# [1] = test system: CD34+-derived cells (CFU-GM, BFU-E); experiment: Colony forming assay
# Description: 1000-3000 CD34^+-derived cells were seeded into methylcellulose containing media (MethoCult H4434, StemCell Technologies) supplemented with SCF, GM-CSF, IL-3, Epo. They were cultured for 14 days and colonies were scored at 10× magnification based on the published morphological criteria by StemCell Technoloigies. Colony forming content was normalized per 10,000 cells seeded.
smiles,measurement,setting,value
"Cc1ccc2c(c1)C(=O)C1(O)CCN(c3ccccc3)C1=N2 (racemic) [blebbistatin, (±)-blebbistatin]",detected proteins up-regulated,"CD41+ and CD41− cells; CD41+ cells, treated samples",75%
same,indicated proteins with increased expression,"CD41+ and CD41− cells; CD41− cells, 3 d treatment",20%
same,in vitro platelets per CD41+ cell vs untreated MKs,MKs,2.5 fold
same,concentration under which BFU-E and CFU-GEMM numbers are not changed,[1],~15 µM
same,IC50,"[1]; SCF and Tpo, n≥3 donors, read-out: BFU-E IC50",18.6 µM
same,IC50,"[1]; SCF and Tpo, n≥3 donors, read-out: CFU-GM IC50",10.5 µM
same,concentration of maximum BFU-E relative to CFU-GM ratio,[1]; absence of Epo,12.5 µM
same,IC50,"[1]; absence of Epo, n=3 donors, read-out: BFU-E relative to CFU-GM IC50",10 µM
same,increase of BFU-E to CFU-GM ratio,[1]; at 12.5 μM,2 fold
